In patent US11006626B2, “Compounds for protection of cells” (Sulfateq B.V., priority 2012, dated 2021):

Tested on: Human Embryo Kidney (HEK) 293 cells
Assay: Hypothermia/rewarming injury of HEK cells, trypan blue viability count
Format: cell-based
Details: for viability at 0.01 µM / viability at 0.1 µM / viability at 1 µM / viability at 10 µM / viability at 100 µM / viability at 1000 µM: Homo sapiens, HEK293, 24 h, read-out: % cells that survived; for viability at 0.01 µM / viability at 0.1 µM / viability at 1 µM / viability at 10 µM / viability at 100 µM / viability at 1000 µM / % cells that survived: 24 h at 4° C., 24 h rewarming; for % cells that survived, Mean: mean over the tested concentrations

| Compound | viability at 0.01 µM (10 nM) | viability at 0.1 µM (100 nM) | viability at 1 µM (1 μM) | viability at 10 µM (10 μM) | viability at 100 µM (100 μM) | viability at 1000 µM (1 mM) | % cells that survived, Mean | % cells that survived (10 nM) | % cells that survived (100 nM) | % cells that survived (1 μM) | % cells that survived (10 μM) | % cells that survived (100 μM) | % cells that survived (1 mM) |
| --- | --- | --- | --- | --- | --- | --- | --- | --- | --- | --- | --- | --- | --- |
| CCCCN1CCN(C(=O)C2(C)CCc3c(C)c(O)c(C)c(C)c3O2)CC1 (centres unmarked) [SUL - 108, (4-butylpiperazin-1-yl)(6-hydroxy-2,5,7,8-tetramethylchroman-2-yl)methanone] | 0% | 40.9% | 94.2% | 96.8% | 96.6% | 0% | 55% | – | – | – | – | – | – |
| Cc1c(C)c2c(c(C)c1O)CCC(C)(C(=O)Nc1cccc([N+](=O)[O-])c1)O2 (centres unmarked) [SUL - 104, 6-hydroxy-2,5,7,8-tetramethyl-N-(3-nitrophenyl)chroman-2-carboxamide] | 99.3% | 99.5% | 97.5% | 98.9% | 40.9% | 52.2% | 81% | – | – | – | – | – | – |
| Cc1c(C)c2c(c(C)c1O)CCC(C)(C(N)=O)O2 (centres unmarked) [SUL - 89, 6-hydroxy-2,5,7,8-tetramethylchroman-2-carboxamide] | – | 34.9% | 88.6% | 91.6% | 87.6% | – | 76% | – | – | – | – | – | – |
| Cc1c(C)c2c(c(C)c1O)CCC(C)(C(=O)NCCCN1CCCCC1)O2 (centres unmarked) [SUL - 102, 6-hydroxy-2,5,7,8-tetramethyl-N-(3-(piperidin-1-yl)propyl)chroman-2-carboxamide] | 73.2% | 95.8% | 93.7% | 82% | 73.4% | 93.3% | 85% | – | – | – | – | – | – |
| Cc1c(C)c2c(c(C)c1O)CCC(C)(C(=O)N1CCOCC1)O2 (centres unmarked) [SUL - 95, (6-hydroxy-2,5,7,8-tetramethylchroman-2-yl)(morpholino)methanone] | – | 2.76% | 86.8% | 90.4% | 92.1% | 85.9% | 72% | – | – | – | – | – | – |
| Cc1c(C)c2c(c(C)c1O)CCC(C)(C(=O)N[C@@H](C(N)=O)c1ccccc1)O2 (stereo partly drawn) [SUL - 111, N-((R)-2-amino-2-oxo-1-phenylethyl)-6-hydroxy-2,5,7,8-tetramethylchroman-2-carboxamide] | 90.9% | 81.6% | 97.3% | 93.7% | 94.3% | 79.2% | 90% | – | – | – | – | – | – |
| Cc1c(C)c2c(c(C)c1O)CCC(C)(C(=O)NO)O2 (centres unmarked) [SUL - 90, N,6-dihydroxy-2,5,7,8-tetramethylchroman-2-carboxamide] | – | 8.67% | 91.3% | 90.2% | 77.9% | 20.4% | 58% | – | – | – | – | – | – |
| Cc1c(C)c2c(c(C)c1O)CCC(C)(C(=O)N[C@H](CO)c1ccccc1)O2 (stereo partly drawn) [SUL - 98, 6-hydroxy-N-((S)-2-hydroxy-1-phenylethyl)-2,5,7,8-tetramethylchroman-2-carboxamide] | – | 91% | 97.8% | 97.5% | 88.5% | 1.02% | 75% | – | – | – | – | – | – |
| CCOC(=O)CN1CCN(C(=O)C2(C)CCc3c(C)c(O)c(C)c(C)c3O2)CC1 (centres unmarked) [SUL - 140, ethyl 2-(4-(6-hydroxy-2,5,7,8-tetramethylchroman-2-carbonyl)piperazin-1-yl)acetate] | 8.7% | 17.9% | 95.7% | 97% | 94.6% | 0% | 52% | – | – | – | – | – | – |
| Cc1c(C)c2c(c(C)c1O)CCC(C)(CN1CCC[C@H]1CO)O2 (stereo partly drawn) [SUL - 135, 2-(((S)-2-(hydroxymethyl)pyrrolidin-1-yl)methyl)-2,5,7,8-tetramethylchroman-6-ol] | – | – | – | – | – | – | 77% | 71.94% | 83.90% | 93.82% | 93.85% | 83.46% | 33.06% |
| Cc1c(C)c2c(c(C)c1O)CCC(C)(CN1CCC[C@H]1CO)O2 (stereo partly drawn) [SUL - 128, 2-(((S)-2-(hydroxymethyl)pyrrolidin-1-yl)methyl)-2,5,7,8-tetramethylchroman-6-ol] | – | 100% | 100% | 100% | 99.4% | – | 71% | 28.21% | – | – | – | – | 0.00% |
| Cc1c(C)c2c(c(C)c1O)CCC(C)(C(=O)NCCC#N)O2 (centres unmarked) [SUL - 123, N-(2-cyanoethyl)-6-hydroxy-2,5,7,8-tetramethylchroman-2-carboxamide] | 68.4% | 90.5% | 83.2% | 88.4% | 88.2% | 0.75% | 70% | – | – | – | – | – | – |
| Cc1c(C)c2c(c(C)c1O)CCC(C)(C(=O)N1CCC[C@H]1CO)O2 (stereo partly drawn) [SUL - 112, (6-hydroxy-2,5,7,8-tetramethylchroman-2-yl)((S)-2-(hydroxymethyl)pyrrolidin-1-yl)methanone] | 96.3% | 96.5% | 95.4% | 93% | 93.1% | 0% | 79% | – | – | – | – | – | – |
| Cc1c2c(c(C(C)C)c(O)c1C(C)C)CCC(C)(C(=O)N1CCNCC1)O2 (centres unmarked) [SUL - 137, (6-hydroxy-5,7-diisopropyl-2,8-dimethylchroman-2-yl)(piperazin-1-yl)methanone] | 78.2% | 86.1% | 93.9% | 90.9% | 78.7% | 0.53% | 71% | – | – | – | – | – | – |
| Cc1c(C)c2c(c(C)c1O)CCC(C)(C(=O)NC(C)C)O2 (centres unmarked) [SUL - 92, 6-hydroxy-N-isopropyl-2,5,7,8-tetramethylchroman-2-carboxamide] | – | 3.13% | 64.6% | 87.1% | 86.5% | 1.55% | 49% | – | – | – | – | – | – |
| Cc1c(C)c2c(c(C)c1O)CCC(C)(C(=O)Nc1ccc(F)cc1)O2 (centres unmarked) [SUL - 106, N-(4-fluorophenyl)-6-hydroxy-2,5,7,8-tetramethylchroman-2-carboxamide] | 77.8% | 76.9% | 63.2% | 68.8% | 55.6% | 0% | 57% | – | – | – | – | – | – |
| COC(=O)c1ccc(NC(=O)C2(C)CCc3c(C)c(O)c(C)c(C)c3O2)cc1 (centres unmarked) [SUL - 107, methyl 4-(6-hydroxy-2,5,7,8-tetramethylchroman-2-carboxamido)benzoate] | 4.42% | 95.7% | 92.7% | 94.8% | 37.6% | 28.9% | 59% | – | – | – | – | – | – |
| CC(C)=CCC/C(C)=C/CNC(=O)C1(C)CCc2c(C)c(O)c(C)c(C)c2O1 (centres unmarked) [SUL - 93, (E)-N-(3,7-dimethylocta-2,6-dien-1-yl)-6-hydroxy-2,5,7,8-tetramethylchroman-2-carboxamide] | – | 97% | 96.1% | 84% | 21.7% | 8% | 61% | – | – | – | – | – | – |
| COC(=O)C1(C)CCc2c(c(C)c(C(C)C)c(O)c2C(C)C)O1 (centres unmarked) [SUL - 146, methyl 6-hydroxy-5,7-diisopropyl-2,8-dimethylchroman-2-carboxylate] | 0.96% | 17% | 90.6% | 80.7% | 85.5% | 0% | 46% | – | – | – | – | – | – |
| Cc1c(C)c2c(c(C)c1O)CCC(C)(C(=O)NCc1ccc(F)cc1)O2 (centres unmarked) [SUL - 97, N-(4-fluorobenzyl)-6-hydroxy-2,5,7,8-tetramethylchroman-2-carboxamide] | – | 0% | 95.1% | 96.4% | 91.6% | 5.17% | 58% | – | – | – | – | – | – |
| Cc1c(C)c2c(c(C)c1O)CCC(C)(CN[C@H](CO)c1ccccc1)O2 (stereo partly drawn) [SUL - 129, 2-((((S)-2-hydroxy-1-phenylethyl)amino)methyl)-2,5,7,8-tetramethylchroman-6-ol] | 0% | 5.65% | 88.8% | 89.9% | 91.5% | 0% | 46% | – | – | – | – | – | – |
| Cc1c(C)c2c(c(C)c1O)CC[C@@](C)(C(=O)O)O2 [SUL - 84, (S)-6-hydroxy-2,5,7,8-tetramethylchroman-2-carboxylic acid] | – | 6.22% | 19.8% | 70.1% | 95.7% | 94.5% | 57% | – | – | – | – | – | – |
| Cc1c(C)c2c(c(C)c1O)CCC(C)(CN1CCC[C@H]1CO)O2 (stereo partly drawn) [SUL - 134, 2-(((S)-2-(hydroxymethyl)pyrrolidin-1-yl)methyl)-2,5,7,8-tetramethylchroman-6-ol] | – | – | – | – | – | – | 79% | 87.43% | 86.34% | 87.74% | 86.58% | 88.82% | 36.51% |
